Test results: patent US8822517B2, “Arylosulfonamides for the treatment of CNS diseases” (Adamed SP. Z O.O., priority 2010, dated 2014)

Assays:
adrenergic α1A receptor = biological target: T1, adrenergic α1A receptor (Homo sapiens, UniProt P35348); experiment: Cellular functional assay, adrenergic α1A receptor (agonism/antagonism); assay type: cell-based; conditions: for activation at 1 µM: agonist effect, percent of control specific agonist response, compounds tested at 1×10^−6M, read-out: α1A -ag [%]; for inhibition at 1 µM: read-out: α1A -antag. [%]
T1 sequence (P35348 1-466): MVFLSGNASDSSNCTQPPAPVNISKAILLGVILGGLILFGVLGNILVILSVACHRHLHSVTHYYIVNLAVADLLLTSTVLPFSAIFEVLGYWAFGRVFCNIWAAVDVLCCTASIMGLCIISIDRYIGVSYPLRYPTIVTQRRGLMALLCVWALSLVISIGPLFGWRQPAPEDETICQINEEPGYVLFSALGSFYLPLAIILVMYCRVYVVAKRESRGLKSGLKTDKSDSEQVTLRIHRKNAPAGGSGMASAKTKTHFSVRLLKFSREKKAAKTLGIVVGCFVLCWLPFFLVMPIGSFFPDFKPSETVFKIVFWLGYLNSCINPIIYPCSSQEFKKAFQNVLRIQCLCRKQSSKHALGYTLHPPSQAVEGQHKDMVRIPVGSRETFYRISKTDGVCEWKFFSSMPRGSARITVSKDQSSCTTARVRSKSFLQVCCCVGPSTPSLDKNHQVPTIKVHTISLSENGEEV
Outline: (§1)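 Human receptors tested in cell-based functional format for both agonist and antagonist modes. Single compound concentration of 1×10^−6M.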

[1] = biological target: serotoninergic 5-HT2A receptor (Homo sapiens, UniProt P28223); experiment: Cellular functional assay, serotoninergic 5-HT2A receptor (agonism/antagonism); assay type: cell-based; conditions: for activation at 1 µM: read-out: 5-HT2A -ag [%]; for inhibition at 1 µM: read-out: 5-HT2A -antag [%]
Outline: as §1

dopaminergic D3 receptor = dopaminergic D3 receptor (Homo sapiens, UniProt P35462); experiment: Cellular functional assay, dopaminergic D3 receptor (agonism/antagonism); assay type: cell-based; conditions: for inhibition at 1 µM: CHO, read-out: D3-antag. [%]; for activation at 1 µM: agonist effect, percent of control specific agonist response (300 nM dopamine for control), 1×10^−6 M, D3 (h), CHO cells, read-out: D3-ag [%]
Method: (§2) The compounds were tested at the concentration of 1×10^−6M.
(§3) In the Tables ag refers to agonism, and antag to antagonism).

dopaminergic D2 receptor = dopaminergic D2 receptor (Homo sapiens, UniProt P14416); experiment: Cellular functional assay, dopaminergic D2 receptor (agonism/antagonism); assay type: cell-based; conditions: HEK293; for activation at 1 µM: agonist effect, percent of control specific agonist response (3 μM dopamine for control), 1×10^−6 M, D2S (h), HEK-293 cells, read-out: D2-ag [%]; for inhibition at 1 µM: read-out: D2-antag. [%]
Method: as §2, §3

[2] = biological target: T2, serotoninergic receptor 5-HT2C (Homo sapiens, UniProt P28335); experiment: Binding assay 5-HT2C (h), [3H]mesulergine, HEK-293 cells; conditions: read-out: 5-HT2C [%]
T2 construct: expressed in transfected cells; host or cells: HEK-293 cells
T2 sequence (P28335 33-458): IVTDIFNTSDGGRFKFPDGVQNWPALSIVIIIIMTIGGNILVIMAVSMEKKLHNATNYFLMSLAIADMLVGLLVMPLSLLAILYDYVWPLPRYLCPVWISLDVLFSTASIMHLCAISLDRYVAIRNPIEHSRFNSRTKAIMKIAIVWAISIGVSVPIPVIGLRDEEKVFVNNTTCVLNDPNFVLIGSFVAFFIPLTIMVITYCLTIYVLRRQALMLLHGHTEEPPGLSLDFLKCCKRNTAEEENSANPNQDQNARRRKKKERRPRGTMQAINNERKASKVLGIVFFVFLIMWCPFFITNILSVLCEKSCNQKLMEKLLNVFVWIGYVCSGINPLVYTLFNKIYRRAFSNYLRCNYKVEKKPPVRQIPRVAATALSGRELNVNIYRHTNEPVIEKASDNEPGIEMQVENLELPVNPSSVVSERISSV
Outline: (§4)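 Compounds tested at a single 1×10^−6 M concentration against the listed radioligands; bound label counted by scintillation, with non-specific binding defined by excess unlabelled ligand and subtracted from total.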

[3] = biological target: T3, serotoninergic 5-HT7 receptor (Homo sapiens, UniProt P34969); experiment: Binding assay 5-HT7 (h), [3H]LSD, CHO cells; set-up: expressed in transfected cells; host or cells: CHO cells; conditions: read-out: 5-HT7
Outline: as §4

[4] = biological target: T4, serotonine transporter (SERT) receptor (Homo sapiens, UniProt P31645); experiment: Binding assay SERT (h), [3H]imipramine, CHO cells; conditions: read-out: SERT [%]
T4 construct: expressed in transfected cells; host or cells: CHO cells
Outline: as §4

[5] = biological target: serotoninergic 5-HT6 receptor (Homo sapiens, UniProt P50406); experiment: Cellular functional assay, serotoninergic 5-HT6 receptor (agonism/antagonism); assay type: cell-based; conditions: for activation at 1 µM: agonist effect, percent of control specific agonist response, compounds tested at 1×10^−6M, read-out: 5-HT6-ag [%]; for inhibition at 1 µM: read-out: 5-HT6-antag. [%]
Method: as §2, §3

[6] = biological target: T5, serotoninergic 5-HT1A receptor (Homo sapiens, UniProt P08908); experiment: Cellular functional assay, serotoninergic 5-HT1A receptor (agonism/antagonism); assay type: cell-based; conditions: for inhibition at 1 µM: CHO, read-out: 5-HT1A-antag. [%]; for activation at 1 µM: agonist effect, percent of control specific agonist response (100 nM 8-OH-DPAT for control), 1×10^−6 M, 5-HT1A (h), CHO cells, read-out: 5-HT1A-ag [%]
T5 sequence (P08908 1-422): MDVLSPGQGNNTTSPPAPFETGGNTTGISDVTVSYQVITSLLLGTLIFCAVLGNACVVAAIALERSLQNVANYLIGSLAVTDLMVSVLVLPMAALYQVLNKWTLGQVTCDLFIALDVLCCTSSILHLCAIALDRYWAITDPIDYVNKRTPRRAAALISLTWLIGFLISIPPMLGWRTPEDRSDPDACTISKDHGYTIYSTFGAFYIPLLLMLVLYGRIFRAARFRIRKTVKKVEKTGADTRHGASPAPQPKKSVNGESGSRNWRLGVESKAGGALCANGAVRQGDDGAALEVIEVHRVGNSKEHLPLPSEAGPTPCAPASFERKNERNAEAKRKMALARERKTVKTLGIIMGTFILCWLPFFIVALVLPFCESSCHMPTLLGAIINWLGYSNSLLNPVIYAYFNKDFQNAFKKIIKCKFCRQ
Method: as §2, §3

[7] = biological target: T3, serotoninergic 5-HT7 receptor; experiment: Cellular functional assay, serotoninergic 5-HT7 receptor (agonism/antagonism); assay type: cell-based; conditions: for activation at 1 µM: agonist effect, percent of control specific agonist response, compounds tested at 1×10^−6M, read-out: 5-HT7-ag [%]; for inhibition at 1 µM: read-out: 5-HT7-antag. [%]
Method: as §2, §3

Chain of serotoninergic 5-HT6 receptor (P50406 whole entry): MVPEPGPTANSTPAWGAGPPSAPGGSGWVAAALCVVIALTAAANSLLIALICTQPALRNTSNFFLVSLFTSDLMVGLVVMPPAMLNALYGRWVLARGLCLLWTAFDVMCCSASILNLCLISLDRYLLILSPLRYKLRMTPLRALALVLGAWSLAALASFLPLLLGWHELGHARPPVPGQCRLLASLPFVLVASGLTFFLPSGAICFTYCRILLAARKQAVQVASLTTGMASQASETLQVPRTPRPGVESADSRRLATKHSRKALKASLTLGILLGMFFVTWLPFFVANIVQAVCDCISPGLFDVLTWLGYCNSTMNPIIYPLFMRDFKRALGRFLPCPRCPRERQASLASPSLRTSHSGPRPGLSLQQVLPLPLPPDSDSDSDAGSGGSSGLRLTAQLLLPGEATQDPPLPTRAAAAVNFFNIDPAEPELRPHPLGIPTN
T4 sequence (P31645 whole entry): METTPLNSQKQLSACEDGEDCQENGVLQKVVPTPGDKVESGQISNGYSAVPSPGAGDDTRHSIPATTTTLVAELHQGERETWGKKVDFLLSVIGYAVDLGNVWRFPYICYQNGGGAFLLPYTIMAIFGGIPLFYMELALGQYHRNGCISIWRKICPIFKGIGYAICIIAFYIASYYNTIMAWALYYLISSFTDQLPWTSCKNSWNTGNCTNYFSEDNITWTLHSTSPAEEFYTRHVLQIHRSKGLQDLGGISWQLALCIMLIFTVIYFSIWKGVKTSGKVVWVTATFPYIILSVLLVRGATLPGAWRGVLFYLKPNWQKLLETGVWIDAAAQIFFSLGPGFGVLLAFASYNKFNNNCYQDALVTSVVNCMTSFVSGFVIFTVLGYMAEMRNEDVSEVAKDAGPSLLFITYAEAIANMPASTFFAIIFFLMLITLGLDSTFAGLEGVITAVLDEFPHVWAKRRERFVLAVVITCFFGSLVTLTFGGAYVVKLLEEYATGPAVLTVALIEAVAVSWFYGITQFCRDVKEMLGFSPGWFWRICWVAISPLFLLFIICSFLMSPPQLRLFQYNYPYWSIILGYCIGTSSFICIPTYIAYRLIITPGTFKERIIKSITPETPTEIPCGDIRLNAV
T3 sequence (P34969 whole entry): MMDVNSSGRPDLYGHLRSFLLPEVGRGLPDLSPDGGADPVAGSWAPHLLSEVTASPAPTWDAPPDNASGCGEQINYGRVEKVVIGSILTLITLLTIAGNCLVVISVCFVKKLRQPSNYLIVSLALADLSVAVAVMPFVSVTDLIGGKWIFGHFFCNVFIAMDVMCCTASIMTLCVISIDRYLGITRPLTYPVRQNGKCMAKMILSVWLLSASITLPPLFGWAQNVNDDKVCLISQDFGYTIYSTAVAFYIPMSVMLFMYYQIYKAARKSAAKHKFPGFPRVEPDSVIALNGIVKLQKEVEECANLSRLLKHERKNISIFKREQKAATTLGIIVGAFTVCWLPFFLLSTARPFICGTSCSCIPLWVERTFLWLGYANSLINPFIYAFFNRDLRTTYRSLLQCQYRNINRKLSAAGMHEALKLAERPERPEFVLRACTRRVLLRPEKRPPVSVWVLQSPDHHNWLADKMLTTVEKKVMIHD
Chain of dopaminergic D3 receptor (P35462 whole entry): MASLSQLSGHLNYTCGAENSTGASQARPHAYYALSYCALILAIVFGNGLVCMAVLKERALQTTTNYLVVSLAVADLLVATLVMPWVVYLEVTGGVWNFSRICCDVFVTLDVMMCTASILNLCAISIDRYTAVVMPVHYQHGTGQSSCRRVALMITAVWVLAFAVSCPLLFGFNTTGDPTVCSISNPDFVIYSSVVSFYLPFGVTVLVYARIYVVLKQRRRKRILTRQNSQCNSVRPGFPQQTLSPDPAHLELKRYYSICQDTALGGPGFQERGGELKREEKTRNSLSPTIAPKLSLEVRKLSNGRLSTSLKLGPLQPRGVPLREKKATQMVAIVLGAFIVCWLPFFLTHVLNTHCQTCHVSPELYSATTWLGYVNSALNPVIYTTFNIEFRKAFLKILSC
Chain of serotoninergic 5-HT2A receptor (P28223 whole entry): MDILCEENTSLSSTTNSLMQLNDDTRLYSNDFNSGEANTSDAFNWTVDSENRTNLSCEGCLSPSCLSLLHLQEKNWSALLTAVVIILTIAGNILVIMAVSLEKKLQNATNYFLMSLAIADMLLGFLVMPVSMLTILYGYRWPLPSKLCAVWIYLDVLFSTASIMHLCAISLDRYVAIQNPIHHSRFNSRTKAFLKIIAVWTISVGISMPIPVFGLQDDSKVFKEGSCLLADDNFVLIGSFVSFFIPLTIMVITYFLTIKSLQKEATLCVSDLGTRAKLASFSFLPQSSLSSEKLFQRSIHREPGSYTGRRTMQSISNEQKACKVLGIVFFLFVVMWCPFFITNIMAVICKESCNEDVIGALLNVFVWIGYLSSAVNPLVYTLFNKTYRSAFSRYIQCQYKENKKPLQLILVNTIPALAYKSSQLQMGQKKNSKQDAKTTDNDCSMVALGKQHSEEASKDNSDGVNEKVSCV
Chain of dopaminergic D2 receptor (P14416 whole entry): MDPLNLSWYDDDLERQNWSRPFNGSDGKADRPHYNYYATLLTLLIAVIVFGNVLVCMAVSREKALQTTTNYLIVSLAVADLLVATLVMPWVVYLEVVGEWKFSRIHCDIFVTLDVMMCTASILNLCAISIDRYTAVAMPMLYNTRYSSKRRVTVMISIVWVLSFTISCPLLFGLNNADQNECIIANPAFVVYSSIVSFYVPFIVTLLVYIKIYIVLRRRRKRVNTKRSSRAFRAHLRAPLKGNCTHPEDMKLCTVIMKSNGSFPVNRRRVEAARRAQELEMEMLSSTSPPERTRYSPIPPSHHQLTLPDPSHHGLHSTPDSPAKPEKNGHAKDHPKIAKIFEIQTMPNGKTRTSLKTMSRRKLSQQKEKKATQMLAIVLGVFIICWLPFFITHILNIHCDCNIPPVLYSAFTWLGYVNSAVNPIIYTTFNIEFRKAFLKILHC

SMILES	activation at 1 µM (adrenergic α1A receptor)	inhibition at 1 µM (adrenergic α1A receptor)	activation at 1 µM [1]	inhibition at 1 µM [1]	inhibition at 1 µM (dopaminergic D3 receptor)	activation at 1 µM (dopaminergic D3 receptor)	activation at 1 µM (dopaminergic D2 receptor)	inhibition at 1 µM (dopaminergic D2 receptor)	inhibition at 1 µM [2]	inhibition at 1 µM [3]	inhibition at 1 µM [4]	activation at 1 µM [5]	inhibition at 1 µM [5]	inhibition at 1 µM [6]	activation at 1 µM [6]	activation at 1 µM [7]	inhibition at 1 µM [7]
O=S(=O)(NCCCCN1CCN(c2nsc3ccccc23)CC1)c1csc2ccccc12 [Compound 240, N-[4-[4-(1,2-Benzothiazol-3-yl)piperazin-1-yl]butyl]benzothiophene-3-sulphonamide]	0%	100%	-3%	93%	72%	8%	3%	83%	78%	97%	46%	-2%	71%	50%	9%	-2%	98%
Cc1cccc(S(=O)(=O)NCCCN2CCC(c3noc4cc(F)ccc34)CC2)c1 [Compound 22, N-[3-[4-(6-Fluoro-1,2-benzoxazol-3-yl)piperidin-1-yl]propyl]-3-methylbenzenesulphonamide]	0%	100%	-1%	102%	81%	-25%	2%	99%	73%	99%	44%	1%	82%	99%	0%	-1%	100%
O=S(=O)(NCCCCN1CCN(c2cccc3[nH]ccc23)CC1)c1ccc2cc(Cl)ccc2c1 [Compound 358, 6-Chloro-N-[4-[4-(1H-indol-4-yl)piperazin-1-yl]butyl]naphthalene-2-sulphonamide]	–	–	-1%	57%	35%	47%	30%	84%	62%	94%	40%	–	–	70%	22%	10%	28%
Cc1c(S(=O)(=O)NCCCCN2CCN(c3noc4ccccc34)CC2)sc2ccc(F)cc12 [Compound 81, N-[4-[4-(1,2-Benzoxazol-3-yl)piperazin-1-yl]butyl]-5-fluoro-3-methylbenzothiophene-2-sulphonamide]	1%	100%	-1%	95%	76%	-10%	4%	73%	50%	99%	28%	1%	88%	22%	5%	-2%	98%
Cc1cccc(S(=O)(=O)NCCCN2CCN(c3nsc4ccccc34)CC2)c1 [Compound 7, N-(3-(4-(1,2-Benzothiazol-3-yl)piperazin-1-yl)propyl)-3-methylbenzenesulphonamide]	0%	100%	0%	100%	66%	-21%	0%	91%	89%	97%	88%	1%	65%	51%	59%	-1%	98%
O=S(=O)(NCCCCN1CCN(c2cccc3[nH]ccc23)CC1)c1cc2ccc(Cl)cc2s1 [Compound 363, 6-Chloro-N-[4-[4-(1H-indol-4-yl)piperazin-1-yl]butyl]benzothiophene-2-sulphonamide]	0%	100%	-1%	62%	-3%	65%	50%	94%	57%	98%	32%	–	–	27%	78%	6%	24%
O=S(=O)(NCCCCN1CCN(c2cccc3[nH]ccc23)CC1)c1ccc2ccccc2c1 [Compound 26, N-{4-[4-(1H-Indol-4-yl)piperazin-1-yl]butyl}naphthalene-2-sulphonamide]	0%	100%	-1%	77%	-8%	64%	29%	99%	19%	98%	14%	–	–	22%	67%	14%	13%
O=S(=O)(NCCCCN1CCN(c2cccc3[nH]ccc23)CC1)c1cc2ccccc2s1 [Compound 33, N-{4-[4-(1H-Indol-4-yl)piperazin-1-yl]butyl}-1-benzothiophene-2-sulphonamide]	0%	100%	-1%	41%	-1%	60%	37%	98%	27%	99%	-4%	–	–	24%	63%	19%	20%
